Assay results: US20090158447A1, “TLR ligand and IL-1 Response-Injured Animal Model” (priority 2004, published 2009)

Legend:
Format in all cases: cell-based, mouse
RAW 264.7 cells = assay: Luciferase reporter assay of IL-6 and ELAM1 promoters; settings: RAW 264.7 cells transfected with luciferase reporter plasmids, FIG. 4a
Description: It is a figure showing the result of an in vitro analysis of IκB-ζ on the IL-6 promoter. a. RAW 264.7 cells were transiently transfected with luciferase reporter constructs of either mouse IL-6 promoter or ELAM1 promoter together with either a control or the IκB-ζ expression plasmid. Luciferase activities were expressed as fold-increase over the background shown by lysates prepared from untransfected cells. Data are representative of three separate experiments. In all three experiments, cells were stimulated with the indicated concentrations of LPS. b. A certain amount of IκB-ζ expression vector was transiently introduced into untreated RAW 264.7 cells with the indicated amount of IL-6 reporter plasmid. Data are representative of three independent experiments. c. […] Precipitated DNA for the IL-6 κB site (left), 3′ region of IL-6 gene (center), or ELAM1 promoter (right) was measured by PCR (ChIP). […]
Reporter plasmids were transiently co-transfected into RAW 264.7 and P19 cells with either control or the IκB-ζ expression vectors by using SUPERFECT transfection reagent (QIAGEN). Luciferase activities of total cell lysates were measured using dual-luciferase reporter assay system (Promega, Maiden, Wis.) according to the method described previously (28, 29) (Nat Immunol. 3, 392-398 (2002); Nat Immunol. 2, 835-841 (2001)).

[1] = test system: peritoneal macrophages or lung-derived normal cells; assay: Northern blot analysis of IκB-ζ, Bcl-3 and IκB-α expression on TLR/IL-1R stimulation; settings: stimulation for 2 hours, FIG. 1a
Experimental: Peritoneal macrophages and lung primary cells were stimulated with 100 ng ml^−1 BLP, 10 μg ml^−1 PGN, 30 ng ml^−1 MALP-2, 100 nM R-848, 3 μM CpG DNA, 10 ng ml^−1 IL-1β, 10 μg ml^−1 LPS, 100 ng ml^−1 flagellin, and 10 ng ml^−1 TNF-α for 2 hours. Total RNA (10 μg) was extracted and subjected to Northern blot analysis for investigating the expression of IκB-ζ, Bcl-3, IκB-α, and β-actin. b. MEFs from wild-type and MyD88-deficient mice were stimulated with 10 ng ml^−1 IL-1β and 10 μg ml^−1 LPS for the indicated periods. Total RNA (10 μg) was extracted and subjected to Northern blot analysis for investigating the expression of IκB-ζ, Cox-2, IP-10, and β-actin.
Whether IκB-ζ would be induced in response to other TLR ligands was examined based on the fact that stimulation with IL-1 or LPS induces IκB-ζ in macrophage cell lines and fibroblasts, and that IL-1R and the receptor for LPS, TLR4, share the intracellular signaling pathways. […] On the other hand, other IκB family members, IκB-α and Bcl-3, were induced in response to TNF-αas well as a TLR ligand and IL-1. Taken together, unlike IκB-α and Bcl-3, the IκB-ζ induction is specifically detected on the TLR/IL-1R stimulation.

peritoneal macrophages = assay: Time-course Northern blot analysis of IκB-ζ induction following LPS stimulation; settings: wild-type peritoneal macrophages, 10 ng ml^−1 LPS, FIG. 3h
Experimental: It is a figure showing immune responses in IκB-ζ-deficient cells, and kinetics of IκB-ζ induction. a, b, c, d. Peritoneal macrophages from wild-type and IκB-ζ-deficient mice were cultured with the indicated concentrations of PGN, R-848, CpG DNA in the coexistence of 10 ng ml^−1 LPS, 100 ng ml^−1 BLP, and 30 ng ml^−1 MALP-2, and in the presence of 30 ng ml^−1 IFN-γ for 24 h. Concentrations of IL-6, TNF-α, and NO in the culture supernatants were measured. The indicated values are means±SD of triplicates. “N.D.” means not detected. e. MEFs from wild-type and IκB-ζ-deficient mice were stimulated with 10 ng ml^−1 IL-1 and 10 ng ml^−1 TNF-α. Supernatents were collected for IL-6 analysis by ELISA 24 h later. Indicated values are means±SD of triplicates. “N.D.” means not detected. f. Peritoneal macrophages were stimulated with 10 ng ml^−1 LPS for the indicated periods. Total RNA (5 μg) was extracted and subjected to Northern blot analysis for investigating the expression of IL-6, TNF-α, and β-actin. g. […] Concentrations of IL-6 in the culture supernatants, with or without 10 ng ml^−1 IL-β, were measured by ELISA. […] Two-independent experiments with independently derived wild-type cells were quantitated by Phospholmager and mRNA amount was graphed for the indicated genes in arbitrary units (left for IκB-ζ and IL-6, right for TNF-α) relative to β-actin. […]

Substance: lipopolysaccharide [LPS]
- activation of both IL-6 and ELAM1 promoters (RAW 264.7 cells): dose-dependent manner
- IκB-ζ mRNA induction [1]: strongly induced
- time after stimulation at which IκB-ζ induction reached its maximum level (peritoneal macrophages): 120 min
- time after stimulation at which IκB-ζ induction was observed (peritoneal macrophages): 30 min
